Results as given in patent US4691046A, “Butanedioic acid mono [(2-dimethylamino] ethyl ester)succinate” (Institut Organicheskoi Khimii Ordena Lenina I Ordena …, priority 1986, dated 1987).

Experiments:
[1] = Stresso-protective activity, motion stress in slowly rotating drum for 48 hours; assay type: in vivo, rats; settings: 48 h motion stress, 10 mg/kg i.p. four times (invention, ester)
Protocol: In evaluation of the stresso-protective activity of the compound according to the present invention as a model use was made of a procedure of depriving rats of sleep, meals and water in a slowly rotating drum (at the speed of 0.2 km/h).
The experiments were carried out on 42 nondescript male rats. In parallel experiments the antistress activity of butanedioic acid mono[(2-dimethylamino)ethyl ester] was studied; as the reference prepartion use was made of the prior art tranquilizer--diazepam which was used in the experiments for this very indication.
4 groups of animals were tested in parallel. Groups I and II were placed for 48 hours into a slowly rotating drum, groups III and IV were under normal conditions and were deprived only of meals and water. The compound according to the present invention and butanedioic acid mono[(2-dimethylamino)ethyl ester] were administered intraperitoneally in the dose of 10 mg/kg four times (2 times a day) in the volume of 2.5 ml/kg under the conditions of motion stress (Group I of the animals) and under normal conditions (Group III of animals). The control animals--Group II (active control) and Group IV (passive control) were given a physiological solution. The efficiency of the compound according to the present invention, of butanedioic acid mono[(2-dimethylamino)ethyl ester] and of diazepam was estimated on the basis of a set of characteristics showing the functional activity of the central nervous system, physical fitness and development of basic symptoms of the stress-syndrome.
The residence of control rats in a slowly-rotating drum over 48 hours results in a noticeable deterioration of all the studied characteristics, especially those of higher nervous activity (learning) and development of stress-syndrome. The state of control animals was characterized by lowering of the overall behavioural activity as determined by the "open-field" test (37±15%) with reference to the passive control level, by a reduction in the speed of development of a conventional avoiding response in an aqueous labyrinth (58±15%), by an increase in the number of mistakes during the teaching time (175±25%), lowering of the ultimate physical endurance as determined by the swimming-with-load test (the load is equal to 10% by mass of the body (70±17%), adrenal hypertrophy (146±16%), thymus atrophy (49±9%) and formation of ulcers on the stomach mucous membrane (5.25±1.0%).

[2] = Survival of mice on acute cooling; assay type: in vivo; settings: i.p. 1 hour before, 80 mg/kg (invention), 64 mg/kg (ester), 17 mg/kg (sodium succinate)
Protocol: The activity of the compound according to the present invention was studied in experiments on animals. The effectivemess of the compound according to the present invention was studied for resistance against an acute cold effect in comparison with conventional preparations such as butanedioic acid mono[(2-dimethylamino)ethyl ester] and sodium succinate.
The experiments were carried out on male mice (tetrahybdrids) with a body mass of 18-20 g which were placed into a cold chamber at a temperature of -15t to -17° C. in separate plastic cages slightly limiting their activity. […] The preparations were administered intraperiotoneally 1 hour before the cold effect the control animals were administered with a physiological solution.

Row | Compound | Weight coefficient of thymus ([1]; control 0.95 ± 0.18) | Weight coefficient of adrenal glands ([1]; control 1.246 ± 0.028) | Number of attempts till reaching the learning criterion (water labyrinth) ([1]; control 4.75 ± 0.5) | Number of ulcers on the stomach mucous membrane ([1]; control 5.25 ± 1.0) | Duration of swimming ([1]; control 244 ± 26) [s] | Survival, %, 1 hour ([2]; 1 hour of cold at -15 to -17° C.) [%] | Survival, %, 2 hours ([2]; 2 hours of cold at -15 to -17° C.) [%] | Survival, %, 3 hours ([2]; 3 hours of cold at -15 to -17° C.) [%] | Survival, %, 4 hours ([2]; 4 hours of cold at -15 to -17° C.) [%] | Survival, %, 5 hours ([2]; 5 hours of cold at -15 to -17° C.) [%] | Survival, %, 6 hours ([2]; 6 hours of cold at -15 to -17° C.) [%]
1 | CN1C(=O)CN=C(c2ccccc2)c2cc(Cl)ccc21 [Diazepam, diazepam] | 2.26 g/kg of the initial body mass | 1.010 g/kg of the initial body mass | 7.25 | 1.0 | 210 | – | – | – | – | – | –
2 | O=C(O)CCC(=O)O [Sodium succinate, sodium succinate] | – | – | – | – | – | 100 | 80 | 70 | 40 | 10 | 0
